Test results reported in patent EP0181129B1, “N6-substituted deoxyribose analogs of adenosines” (WARNER-LAMBERT COMPANY, priority 1984, dated 1986).
“And” between values parts separate entries of the source, which are not always exact repeats. Equal values may be shown once.

Tested on: Swiss-Webster male mice
Assay: Mouse Activity and Screen Test Procedure (MAST)
Type: in vivo
Conditions: for Inhibition of Mouse Locomotor Activity: one hour prior to testing; for Screen Test Failure: percent of mice falling off the screen
Source text: The compounds of the invention are new chemical substances which are useful as pharmaceutical agents for the treatment of psychoses. The antipsychotic activity of representative compounds of the invention was established by the Mouse Activity and Screen Test Procedure (MAST) described below.
Nine unfasted Swiss-Webster male mice weighing 20-30 g are equally divided into three groups for each drug dose to be tested. That is, data for each dose level was generated by three separate groups of three mice each.
A minimum of three dose levels (10, 30, and 100 mg/kg) are tested for each drug. Treatments are administered intraperitoneally one hour prior to testing. All dosages are calculated as parent compound and given in volumes of 10 ml/kg. Compounds are dissolved or suspended in 0.2% Methocel. Control animals are injected with Methocel.
A two part testing procedure is started one hour post injection. First, the screen test (ST) is performed (see Pharmac. Biochem. Behav. 6, 351-353, 1977). Briefly this test consists of placing mice on individual wire screens which are then rotated 180 degrees at the start of a 60 second observation period. The number of mice falling off the inverted screen is recorded.
Immediately following the screen test, the final phase of testing is initiated by placing each group of three mice in one actophotometer (Life Sciences, 22,1067-1076,1978). The actophotometer consists of a cylindrical chamber whose center is occupied by another cylinder which contains the illumination for six photocells located on the perimeter of the chamber. Six light-beam interruptions equal one count. Locomotor activity is recorded by computer at ten minutes intervals for 60 minutes.
The data obtained from the screen test are expressed as percent of mice falling off the screen. Data derived from locomotor activity of drug treated mice are compared to the activity of vehicle treated animals and are expressed as percent inhibition of spontaneous locomotion. All percentages reported for inhibition of locomotion (LI) are based upon data accumulated for one hour. Both phases of testing are graded: A=60-100%; C=31-59%; and N=0-30%. An overall dose rating is obtained by the following criteria:
LAD refers to the lowest dose at which an A rating is achieved. […] Utilizing this procedure, an overall dose rating of A was obtained for the noted compound at the indicated dose. The compounds are identified in the Examples.

[1] = Dose 10 mg/kg intraperitoneally
[2] = Dose 30 mg/kg intraperitoneally
[3] = Dose 0.3 mg/kg intraperitoneally

Screen Test Failure (Dose 3 mg/kg intraperitoneally)	Screen Test Failure [1]	Screen Test Failure [2]	Screen Test Failure [3]	Screen Test Failure (Dose 1 mg/kg intraperitoneally)	Structure (SMILES)	Inhibition of Mouse Locomotor Activity (Dose 3 mg/kg intraperitoneally)	Inhibition of Mouse Locomotor Activity [1]	Inhibition of Mouse Locomotor Activity [2]	Inhibition of Mouse Locomotor Activity [3]	Inhibition of Mouse Locomotor Activity (Dose 1 mg/kg intraperitoneally, 1 mg/kg)
0%	0%	0%			C[C@H]1O[C@@H](n2cnc3c(NCc4cccc5ccccc45)ncnc32)[C@H](O)[C@@H]1O [Example 20, N^6-α-Naphthylmethyl-5' -deoxyadenosine]	−1%	49%	81%		
0%	0%	0%	0%	0%	O[C@@H]1[C@H](O)[C@@H](CCl)O[C@H]1n1cnc2c(NC3CCc4ccccc43)ncnc21 (stereo partly drawn) [Example 23, (R)-N^6(1-Indanyl)-5'-deoxy-5'-chloroadenosine]	48%	76%	81%	−2%	0% and 7%

Structure (SMILES)	Screen Test Failure (Dose 3 mg/kg intraperitoneally)	Screen Test Failure [1]	Screen Test Failure [2]	Screen Test Failure [3]	Screen Test Failure (Dose 1 mg/kg intraperitoneally)	Inhibition of Mouse Locomotor Activity (Dose 3 mg/kg intraperitoneally)	Inhibition of Mouse Locomotor Activity [1]	Inhibition of Mouse Locomotor Activity [2]	Inhibition of Mouse Locomotor Activity [3]	Inhibition of Mouse Locomotor Activity (Dose 1 mg/kg intraperitoneally, 1 mg/kg)
C[C@H]1O[C@@H](n2cnc3c(NC4CCCc5ccccc54)ncnc32)[C@H](O)[C@@H]1O (stereo partly shown) [Example 19, N^6-1-Tetralinyl-5' -deoxyadenosine]	11%	0%	0%			36%	55%	83%		
